Measured values reported in patent US11453671B2, “Pyrazolopyrimidine inhibitors of JAK kinases and uses thereof” (Genentech, Inc., priority 2020, dated 2022).
Read-outs that look alike come from different tables or passages of the source.

Columns and labels:
[1] = system: JAK2 pathway: P-STAT5 in TF-1 human erythroleukemia cells + EPO; assay: P-STAT5 TF-1+Erythropoietin (EPO) assay; assay type: cell-based; conditions: EPO stimulation, read-out: Cellular JAK2 PSTAT5 TF-l + EPO IC50
Protocol: (§1) TF-1 human erythroleukemia cells (ATCC®; Manassas, Va.; Catalog No. CRL-2003™) were grown in Roswell Park Memorial Institute (RPMI) medium supplemented with 10% heat-inactivated fetal bovine serum (FBS), 2 ng/mL granulocyte-macrophage colony-stimulating factor, 1×non-essential amino acids (NEAA), and 1 mM sodium pyruvate. The day before the assay, the cultures were transferred to Opti-MEM™, 1×NEAA, 1 mM sodium pyruvate, and 0.5% charcoal-stripped FBS (starve medium). Inhibitor stock solutions (5 mM in DMSO) were serially diluted 1:2 in DMSO to generate a 10-point concentration titration (at 500×test concentration), which was further diluted by a 50-fold dilution in Assay Medium (RPMI containing 1×NEAA and 1 mM sodium pyruvate) to generate a 10×concentration titration (in 2% DMSO). The cells (300,000 cells/well in 35 μL of Assay Medium) were seeded in 384-well Greiner plates. Diluted inhibitor at 10×concentration (5 μL) was added to the cells and the plates were incubated for 30 minutes at 37° C. in a humidified incubator. Cells were stimulated with the human recombinant cytokine at the respective EC90 concentrations, as previously determined for each individual lot. For the phosphorylated signal transducer and activator of transcription 6 (P-STAT6) TF-1+Interleukin-13 (IL-13) assay, 10 μL of 250 ng/mL IL-13 (R&D Systems; Minneapolis, Minn.) was added to the cells, which were then incubated for 10 minutes at 37° C. For the P-STAT5 TF-1+Erythropoietin (EPO) assay, 10 μL of 110 IU/mL EPO (Gibco Life Technologies, Catalog No. PHC2054) was added to the cells, which were then incubated for 30 min at 37° C. For both assays, the incubation was followed by addition to the cells of 5 μL of ice-cold 10× cell lysis buffer (Cell Signaling Technologies; Danvers, Mass.; Catalog No. 9803S) containing 1 mM phenylmethylsulfonyl fluoride (PMSF). Assay plates were frozen at −80° C. for a minimum of 1 horn. In the IL-13 assay, P-STAT6 was measured by coating goat anti-rabbit (GAR) plates (Meso Scale Discovery [MSD]; Rockville, Md.; Catalog No. MSD L21RA-1) with rabbit anti-human total STAT6 antibody (Cell Signaling Technologies; Catalog No. 9362S), incubating the cell lysates in the coated plates overnight at 4° C., and then detecting with mouse anti-P-STAT6 (Tyr641) Clone 16E12 antibody (MilliporeSigma; Burlington, Mass.; Catalog No. 05-590, custom labeled by MSD with SULFO-tag) using standard MSD plate processing, washing, and detection protocols. In the EPO assay, P-STAT5 was detected using the phospho-STAT5a,b Whole Cell Lysate Kit (MSD; Catalog No. K150IGD-1). The electrochemiluminescence (ECL) signal of wells was read on the MESO SECTOR S600 (MSD) reader.

[2] = system: JAK1: IL-13-stimulated STAT6 phosphorylation in BEAS-2B cells; assay: P-STAT6 BEAS-2B+IL-13 Cell Assay; assay type: cell-based, human; conditions: IL-13 stimulation, read-out: Cellular JAK1 PSTAT6 BEAS2B + IL13 IC50
In short: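 BEAS-2B cells in BEGM preincubated 1 h at 37 °C with 10-point, 1:2 compound dilutions, then stimulated 15 min with IL-13 (250 ng/mL stock). Lysate pSTAT6 (Tyr641) captured on total-STAT6 antibody and read by MSD electrochemiluminescence; IC50 from four-parameter logistic fit.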

[3] = biological target: T1, recombinant human JAK1 kinase domain protein (Residues 854-1154) (Homo sapiens, UniProt P23458); assay: JAK1 biochemical assay (microfluidic mobility shift, peptide phosphorylation); conditions: 25 μM ATP, 1 nM total JAK1; read-out: Enzyme JAK1 Ki
T1 construct: human JAK1 kinase domain protein (Residues 854-1154); purchased Proteros Biostructures GmbH (Martinsried, Germany); host or cells: insect cells
T1 sequence (P23458 854-1154): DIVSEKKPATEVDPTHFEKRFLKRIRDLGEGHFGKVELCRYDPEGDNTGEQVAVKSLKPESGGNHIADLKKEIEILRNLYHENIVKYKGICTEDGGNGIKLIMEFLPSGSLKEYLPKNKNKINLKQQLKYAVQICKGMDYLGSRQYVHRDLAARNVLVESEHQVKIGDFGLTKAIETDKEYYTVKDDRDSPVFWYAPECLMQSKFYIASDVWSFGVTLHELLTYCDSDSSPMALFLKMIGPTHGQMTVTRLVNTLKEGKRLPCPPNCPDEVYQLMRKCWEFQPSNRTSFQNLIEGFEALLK
Text: JAK1 and JAK2 Biochemical Assays

[4] = system: JAK1 pathway: P-STAT6 in TF-1 human erythroleukemia cells + IL-13; assay: P-STAT6 TF-1+Interleukin-13 (IL-13) assay; assay type: cell-based; conditions: IL-13 stimulation, read-out: Cellular JAK1 PSTAT6 TF-1 + IL13 IC50
Protocol: as §1

IC50 ([1]; Homo sapiens, TF-1, TF-1 cells) [nM] | Ki [3] [nM] | IC50 ([4]; Homo sapiens, TF-1, TF-1 cells) [nM] | IC50 ([1]; TF-1 cells) [nM] | IC50 ([4]; TF-1 cells) [nM] | Structure (SMILES) | IC50 [2] [nM] | IC50 ([2]; Homo sapiens, BEAS-2B) [nM]
22 | 0.26 | 20 | – | – | CC(CO)S(=O)(=O)c1ccc(OC(F)F)c(-c2nn(C)cc2NC(=O)c2cnn3cccnc23)c1 (single isomer, unassigned) [Example 23, N-[3-[2-(difluoromethoxy)-5-(2-hydroxy-1-methyl-ethyl)sulfonyl-phenyl]-1-methyl-pyrazol-4-yl]pyrazolo[1,5-a]pyrimidine-3-carboxamide] | 14 | –
– | 0.46 | – | – | – | CC(CO)S(=O)(=O)c1ccc(OC(F)F)c(-c2nn(C)cc2NC(=O)c2cnn3cccnc23)c1 (single isomer, unassigned) [Example 24, N-[3-[2-(difluoromethoxy)-5-(2-hydroxy-1-methyl-ethyl)sulfonyl-phenyl]-1-methyl-pyrazol-4-yl]pyrazolo[1,5-a]pyrimidine-3-carboxamide] | 30 | –
– | 0.69 | – | 38 | 51 | Cn1cc(NC(=O)c2cnn3cccnc23)c(-c2cc(S(=O)(=O)C3CCCNC3)ccc2OC(F)F)n1 (single isomer, unassigned) [Example 37, N-[3-[2-(difluoromethoxy)-5-(3-piperidylsulfonyl)phenyl]-1-methyl-pyrazol-4-yl]pyrazolo[1,5-a]pyrimidine-3-carboxamide] | – | 46
– | 0.43 | – | – | – | C[C@H](O)CS(=O)(=O)c1ccc(OC(F)F)c(-c2nn(C)cc2NC(=O)c2cnn3cccnc23)c1 (stereo in doubt) [Example 15, N-[3-[2-(difluoromethoxy)-5-[rac-(2S)-2-hydroxypropyl]sulfonyl-phenyl]-1-methyl-pyrazol-4-yl]pyrazolo[1,5-a]pyrimidine-3-carboxamide] | – | 20
39 | 0.48 | 20 | – | – | C[C@@H](O)CS(=O)(=O)c1ccc(OC(F)F)c(-c2nn(C)cc2NC(=O)c2cnn3cccnc23)c1 (stereo in doubt) [Example 25, N-[3-[2-(difluoromethoxy)-5-[rac-(2R)-2-hydroxypropyl]sulfonyl-phenyl]-1-methyl-pyrazol-4-yl]pyrazolo[1,5-a]pyrimidine-3-carboxamide] | – | 20
– | 0.71 | – | – | – | CN1CCCC1CCn1cc(S(=O)(=O)c2ccc(OC(F)F)c(-c3nn(C)cc3NC(=O)c3cnn4cccnc34)c2)cn1 (stereo in doubt) [Example 56, N-[3-[2-(difluoromethoxy)-5-[1-[2-[(2R)-1-methylpyrrolidin-2-yl]ethyl]pyrazol-4-yl]sulfonyl-phenyl]-1-methyl-pyrazol-4-yl]pyrazolo[1,5-a]pyrimidine-3-carboxamide] | – | 56
12 | 0.5 | 14 | – | – | Cn1cc(NC(=O)c2cnn3cccnc23)c(-c2cc(S(=O)(=O)C3CCC3)ccc2OC(F)F)n1 [Example 2, N-[3-[5-cyclobutylsulfonyl-2-(difluoromethoxy)phenyl]-1-methyl-pyrazol-4-yl]pyrazolo[1,5-a]pyrimidine-3-carboxamide] | – | 15
29 | 0.43 | 16 | – | – | Cn1cc(NC(=O)c2cnn3cccnc23)c(-c2cc(S(=O)(=O)CCO)ccc2OC(F)F)n1 [Example 5, N-[3-[2-(difluoromethoxy)-5-(2-hydroxyethylsulfonyl)phenyl]-1-methyl-pyrazol-4-yl]pyrazolo[1,5-a]pyrimidine-3-carboxamide] | – | 35
22 | 0.88 | 21 | – | – | CN(C)CCS(=O)(=O)c1ccc(OC(F)F)c(-c2nn(C)cc2NC(=O)c2cnn3cccnc23)c1 [Example 7, N-[3-[2-(difluoromethoxy)-5-[2-(dimethylamino)ethylsulfonyl]phenyl]-1-methyl-pyrazol-4-yl]pyrazolo[1,5-a]pyrimidine-3-carboxamide] | – | 32
9.1 | 0.24 | 8.7 | – | – | COc1cccc(S(=O)(=O)c2ccc(OC(F)F)c(-c3nn(C)cc3NC(=O)c3cnn4cccnc34)c2)c1 [Example 12, N-[3-[2-(difluoromethoxy)-5-(3-methoxyphenyl)sulfonyl-phenyl]-1-methyl-pyrazol-4-yl]pyrazolo[1,5-a]pyrimidine-3-carboxamide] | – | 18
– | 0.49 | – | – | – | COCCS(=O)(=O)c1ccc(OC(F)F)c(-c2nn(C)cc2NC(=O)c2cnn3cccnc23)c1 [Example 14, N-[3-[2-(difluoromethoxy)-5-(2-methoxyethylsulfonyl)phenyl]-1-methyl-pyrazol-4-yl]pyrazolo[1,5-a]pyrimidine-3-carboxamide] | – | 23
– | 0.32 | – | – | – | Cn1cc(NC(=O)c2cnn3cccnc23)c(-c2cc(S(=O)(=O)c3ccncc3)ccc2OC(F)F)n1 [Example 16, N-[3-[2-(difluoromethoxy)-5-(4-pyridylsulfonyl)phenyl]-1-methyl-pyrazol-4-yl]pyrazolo[1,5-a]pyrimidine-3-carboxamide] | – | 15
– | 0.22 | – | – | – | Cn1cc(NC(=O)c2cnn3cccnc23)c(-c2cc(S(C)(=O)=O)ccc2OC(F)F)n1 [Example 17, N-[3-[2-(difluoromethoxy)-5-methylsulfonyl-phenyl]-1-methyl-pyrazol-4-yl]pyrazolo[1,5-a]pyrimidine-3-carboxamide] | – | 14
– | 0.22 | – | – | – | Cn1cc(NC(=O)c2cnn3cccnc23)c(-c2cc(S(=O)(=O)N3CCC3)ccc2OC(F)F)n1 [Example 21, N-[3-[5-(azetidin-1-ylsulfonyl)-2-(difluoromethoxy)phenyl]-1-methyl-pyrazol-4-yl]pyrazolo[1,5-a]pyrimidine-3-carboxamide] | – | 14
– | 0.16 | – | – | – | CNS(=O)(=O)c1ccc(OC(F)F)c(-c2nn(C)cc2NC(=O)c2cnn3cccnc23)c1 [Example 26, N-[3-[2-(difluoromethoxy)-5-(methylsulfamoyl)phenyl]-1-methyl-pyrazol-4-yl]pyrazolo[1,5-a]pyrimidine-3-carboxamide] | – | 11
– | 0.22 | – | – | – | CN(C)S(=O)(=O)c1ccc(OC(F)F)c(-c2nn(C)cc2NC(=O)c2cnn3cccnc23)c1 [Example 30, N-[3-[2-(difluoromethoxy)-5-(dimethylsulfamoyl)phenyl]-1-methyl-pyrazol-4-yl]pyrazolo[1,5-a]pyrimidine-3-carboxamide] | – | 11
– | 0.58 | – | – | – | Cn1cc(NC(=O)c2cnn3cccnc23)c(-c2cc(S(=O)(=O)CCCO)ccc2OC(F)F)n1 [Example 63, N-[3-[2-(difluoromethoxy)-5-(3-hydroxypropylsulfonyl)phenyl]-1-methyl-pyrazol-4-yl]pyrazolo[1,5-a]pyrimidine-3-carboxamide] | – | 71
– | 0.63 | – | – | – | CN(CCO)S(=O)(=O)c1ccc(OC(F)F)c(-c2nn(C)cc2NC(=O)c2cnn3cccnc23)c1 [Example 73, N-(3-(2-(difluoromethoxy)-5-(N-(2-hydroxyethyl)-N-methylsulfamoyl)phenyl)-1-methyl-1H-pyrazol-4-yl)pyrazolo[1,5-a]pyrimidine-3-carboxamide] | – | 53
